Test results reported in the supplement of paper PMC4862054.
“And” between values parts separate entries of the source, which are not always exact repeats. Equal values may be shown once.

How the values were obtained:
Conditions in all cases: incubation time: 72 h
BT-474 [1] = test: drug sensitivity score (DSS), CellTiter-Blue viability (DSS (AUC-based score)); higher = stronger viability inhibition; extreme values may be limits of the assay
Experimental: (§1)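 DSRT with the CellTiter-Blue (resazurin reduction) viability readout, fluorescence 560/590 nm, 72 h incubation. Plates were normalised to DMSO and benzethonium chloride controls. DSS is computed from the area under the fitted dose-response curve (5 or 9 concentrations).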

BT-549 [2] = test: as above
Experimental: as §1

CAL-120 [3] = test: as above
Experimental: as §1

CAL-148 = test: as above
Experimental: as §1

CAL-51 [4] = test: as above
Experimental: as §1

CAL-85-1 = test: as above
Experimental: as §1

DU-4475 [5] = test: as above
Experimental: as §1

HCC1143 [6] = test: as above
Experimental: as §1

HCC1599 = test: as above
Experimental: as §1

HCC1937 [7] = test: as above
Experimental: as §1

HDQ-P1 [8] = test: as above
Experimental: as §1

Hs578T [9] = test: as above
Experimental: as §1

MDA-MB-436 = test: as above
Experimental: as §1

MDA-MB-453 [10] = test: as above
Experimental: as §1

MDA-MB-468 = test: as above
Experimental: as §1

SK-BR-3 = test: as above
Experimental: as §1

BT-474 [11] = test: drug sensitivity score (DSS), CellTox Green (DSS (AUC-based score)); higher = stronger drug effect (viability inhibition or cytotoxicity); extreme values may be limits of the assay
Summary of the method: (§2)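 Each compound occupied 5 concentrations in 10-fold steps over its own 10,000-fold range in 384-well plates, into which breast cancer cell lines were seeded as 20 µl suspension. Following 72 h of incubation, CellTox Green fluorescence (485/520 nm) was measured, and CellTiter-Glo luminescence was measured after 10 min at room temperature. Plates were individually normalised to 0.1 % DMSO and a positive kill control. From the area under the fitted dose-response curve, a drug sensitivity score was calculated.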

BT-549 [12] = test: as above
Summary of the method: as §2

CAL-120 [13] = test: as above
Summary of the method: as §2

CAL-51 [14] = test: as above
Summary of the method: as §2

DU-4475 [15] = test: as above
Summary of the method: as §2

HCC1143 [16] = test: as above
Summary of the method: as §2

HCC1937 [17] = test: as above
Summary of the method: as §2

HDQ-P1 [18] = test: as above
Summary of the method: as §2

Hs578T [19] = test: as above
Summary of the method: as §2

MDA-MB-453 [20] = test: as above
Summary of the method: as §2

| Compound | drug sensitivity score (BT-474 [1]) | drug sensitivity score (BT-549 [2]) | drug sensitivity score (CAL-120 [3]) | drug sensitivity score (CAL-148) | drug sensitivity score (CAL-51 [4]) | drug sensitivity score (CAL-85-1) | drug sensitivity score (DU-4475 [5]) | drug sensitivity score (HCC1143 [6]) | drug sensitivity score (HCC1599) | drug sensitivity score (HCC1937 [7]) | drug sensitivity score (HDQ-P1 [8]) | drug sensitivity score (Hs578T [9]) | drug sensitivity score (MDA-MB-436) | drug sensitivity score (MDA-MB-453 [10]) | drug sensitivity score (MDA-MB-468) | drug sensitivity score (SK-BR-3) | drug sensitivity score (BT-474 [11]) | drug sensitivity score (BT-549 [12]) | drug sensitivity score (CAL-120 [13]) | drug sensitivity score (CAL-51 [14]) | drug sensitivity score (DU-4475 [15]) | drug sensitivity score (HCC1143 [16]) | drug sensitivity score (HCC1937 [17]) | drug sensitivity score (HDQ-P1 [18]) | drug sensitivity score (Hs578T [19]) | drug sensitivity score (MDA-MB-453 [20]) |
| --- | --- | --- | --- | --- | --- | --- | --- | --- | --- | --- | --- | --- | --- | --- | --- | --- | --- | --- | --- | --- | --- | --- | --- | --- | --- | --- |
| COc1ccc(-c2cc3c(C)nc(N)nc3n([C@H]3CC[C@H](OCCO)CC3)c2=O)cn1 | 19.6 | 19.1 | 17.7 | 18.3 | 21.2 | 16.7 | 13.7 | 13.8 | 16.2 | 18.2 | 22.5 | 20.1 | 17.9 | 24.6 | 17.2 | 24.9 | 11.5 | 5.99 | 0 | 12.5 | 0 | 0 | 1.39 | 6.58 | 2 | 0 |
| Cc1cccc(-c2nn3c(c2-c2ccnc4ccc(C(N)=O)cc24)CCC3)n1 | 0 | 0 | 0 | 0 | 0 | 0 | 0 | 0 | 0 | 0 | 0 | 0 | 0 | 0 | 0 | 0 |  |  |  |  |  |  |  |  |  |  |
| Cn1cc(CNCC2CCN(c3ncc(C(=O)NO)cn3)CC2)c2ccccc21 | 19.9 | 8.2 | 20.2 | 22.6 | 13.7 | 19.1 | 21.1 | 18.9 | 16.5 | 16.5 | 16.5 | 13.1 | 5.46 | 27.8 | 14.1 | 25.8 |  |  |  |  |  |  |  |  |  |  |
| O=C(NC[C@H](O)CO)c1ccncc1Nc1ccc(I)cc1F | 0 | 0 | 7.78 | 3.49 | 3.9 | 6.9 | 35.2 | 13.8 | 4.05 | 0 | 10.3 | 0 | 0 | 4.94 | 0 | 0 |  |  |  |  |  |  |  |  |  |  |
| Nc1nc(=O)c2c([nH]1)NCC(CNc1ccc(C(=O)N[C@@H](CCC(=O)O)C(=O)O)cc1)N2C=O (mixture of isomers) [Folinic acid] | 0 | 0 | 0 | 0 | 0 | 0 | 0 | 0 | 0 | 0 | 0 | 0 | 0 | 0 | 0 | 0 |  |  |  |  |  |  |  |  |  |  |
| O=C(Nc1c[nH]nc1-c1nc2ccc(CN3CCOCC3)cc2[nH]1)NC1CC1 [AT9283] | 8.49 | 12.2 | 18.6 | 7.72 | 14 | 10 | 22.7 | 9.48 | 7.51 | 15.4 | 12.4 | 16.4 | 8.22 | 17.4 | 22.4 | 17.5 | 0 | 0 | 3.42 | 14 | 0 | 0 | 0 | 0 | 0.649 | 0 |
| COc1cc(CCc2cc(NC(=O)c3ccc(N4CC(C)NC(C)C4)cc3)n[nH]2)cc(OC)c1 (stereo unspecified) [AZD4547] | 0 | 0 | 0 | 2.37 | 2.97 | 3.12 | 3.06 | 0 | 6.62 | 0 | 0 | 0 | 0 | 5.67 | 0 | 0 | 0 | 0 | 0.0106 | 0 | 0 | 3.67 | 0 | 2.76 | 0 | 0 |
| CCC/C=C/C=C/C(=O)O[C@H]1/C(=C/C(=O)OC)C[C@H]2C[C@H]([C@@H](C)O)OC(=O)C[C@H](O)C[C@@H]3C[C@H](OC(C)=O)C(C)(C)[C@](O)(C[C@@H]4C/C(=C/C(=O)OC)C[C@H](/C=C/C(C)(C)[C@]1(O)O2)O4)O3 [Bryostatin 1] | 0 | 0 | 0 | 16.1 | 0 | 7.23 | 0 | 6.66 | 16.1 | 0 | 0 | 0 | 0 | 0 | 0 | 4.97 | 0 | 0 | 0 | 0 | 0 | 0 | 4.81 | 10.8 | 0 | 0 |
| CO[C@@H](C(=O)N1Cc2[nH]nc(NC(=O)c3ccc(N4CCN(C)CC4)cc3)c2C1)c1ccccc1 [Danusertib] | 0 | 9.37 | 10.5 | 13.2 | 13.4 | 10.7 | 14.2 | 8.76 | 6.9 | 10.8 | 14.3 | 11.3 | 4.87 | 18.4 | 15.5 | 0 | 0 | 1.26 | 3.17 | 13.8 | 0 | 0 | 1.64 | 0.964 | 15.2 | 0 |
| Cc1nc(Nc2ncc(C(=O)Nc3c(C)cccc3Cl)s2)cc(N2CCN(CCO)CC2)n1 [Dasatinib] | 0 | 8.07 and 9.99 | 11.2 and 13.7 | 0 | 12.4 and 11.1 | 8.12 and 9 | 0 | 6.83 and 7.93 | 0 | 0 | 19.3 and 21.9 | 10.6 and 12.3 | 7.53 and 9.46 | 0 | 0 | 0 | 0 | 2.37 | 0 | 6.25 | 0 | 0 | 0 | 0 | 6.23 | 0 |
| O=S(=O)(c1cccc2cnccc12)N1CCCNCC1 [Fasudil] | 0 | 0 | 0 | 0 | 0 | 0 | 0 | 0 | 0 | 0 | 0 | 0 | 0 | 0.912 | 0 | 0 | 0 | 0 | 0 | 0 | 0 | 0 | 0 |  | 0 | 0 |
| CS(=O)(=O)N1CCN(Cc2cc3nc(-c4cccc5[nH]ncc45)nc(N4CCOCC4)c3s2)CC1 [GDC-0941] | 11.8 | 9.12 | 10.5 | 11.3 | 13.9 | 9.93 | 2.84 | 9.14 | 11.7 | 8.92 | 18.3 | 8.67 | 7.33 | 18.5 | 8.93 | 19.4 |  |  |  |  |  |  |  |  |  |  |
| Cc1c(CN2CCN(C(=O)[C@H](C)O)CC2)sc2c(N3CCOCC3)nc(-c3cnc(N)nc3)nc12 [GDC-0980] | 15.6 | 14.7 | 17.5 | 17.2 | 18.9 | 14.8 | 12.6 | 15.9 | 15.1 | 14.1 | 19.2 | 15.4 | 10.4 | 22.8 | 12.3 | 22.4 | 4.57 | 0 | 0 | 6.08 | 0 | 3.43 | 0 | 1.58 | 0 | 0 |
| CNC(=O)c1cc(Oc2ccc(NC(=O)Nc3ccc(Cl)c(C(F)(F)F)c3)cc2)ccn1 [Sorafenib] | 0 |  | 0 | 0 | 0 |  | 0 | 0 | 0 | 0 | 0 | 0 | 0 | 0 | 0 | 0 | 0 | 0 | 0 | 0 | 0 | 0 | 0 | 0 | 0 | 0 |
| CCN(CC)CCNC(=O)c1c(C)[nH]c(/C=C2\C(=O)Nc3ccc(F)cc32)c1C [Sunitinib] | 0 | 0 | 0 | 0 | 0 | 0 | 0 | 0 | 0 | 0 |  | 0 | 0 | 0 | 0 | 0 | 0 | 0 | 0 | 0 | 0 | 0 | 0 | 0 | 2.45 | 0 |
